Test: xn = mol fraction of the nth substance listed

COCCO + Cc1ccccc1
viscosity [mPa·s]
Details | 298.15 K | 303.15 K | 308.15 K
101 kPa, x1 = 0.0586 | 0.571 | – | 0.512
101 kPa, x1 = 0.1696 | 0.617 | – | 0.545
101 kPa, x1 = 0.2421 | 0.654 | – | 0.571
101 kPa, x1 = 0.3513 | 0.719 | – | 0.618
101 kPa, x1 = 0.4555 | 0.796 | – | 0.674
101 kPa, x1 = 0.4987 | 0.833 | – | 0.7
101 kPa, x1 = 0.5515 | 0.882 | – | 0.736
101 kPa, x1 = 0.6515 | 0.99 | – | 0.814
101 kPa, x1 = 0.7487 | 1.118 | – | 0.905
101 kPa, x1 = 0.8495 | 1.279 | – | 1.021
101 kPa, x1 = 0.9558 | 1.49 | – | 1.17
101.33 kPa, x1 = 0.1311 | – | 0.566 | –
101.33 kPa, x1 = 0.2283 | – | 0.608 | –
101.33 kPa, x1 = 0.3137 | – | 0.645 | –
101.33 kPa, x1 = 0.4277 | – | 0.716 | –
101.33 kPa, x1 = 0.5253 | – | 0.784 | –
101.33 kPa, x1 = 0.6244 | – | 0.87 | –
101.33 kPa, x1 = 0.7116 | – | 0.954 | –
101.33 kPa, x1 = 0.8018 | – | 1.057 | –
101.33 kPa, x1 = 0.9149 | – | 1.219 | –

COCCO + CO
viscosity [mPa·s]
Details | 298.15 K | 308.15 K | 318.15 K
101 kPa, x1 = 0.04469 | 0.6045 | 0.5088 | 0.4575
101 kPa, x1 = 0.09523 | 0.6714 | 0.536 | 0.469
101 kPa, x1 = 0.1529 | 0.7467 | – | 0.4955
101 kPa, x1 = 0.2192 | 0.8508 | 0.6249 | 0.5383
101 kPa, x1 = 0.2963 | 0.9698 | 0.6991 | 0.6017
101 kPa, x1 = 0.3871 | 1.085 | 0.7594 | 0.6484
101 kPa, x1 = 0.4956 | 1.19 | 0.8407 | 0.7649
101 kPa, x1 = 0.6274 | 1.299 | 0.9321 | 0.8436
101 kPa, x1 = 0.7912 | 1.419 | 1.058 | 0.9667
101.33 kPa, x1 = 0.1175 | – | 0.569 | –
101.33 kPa, x1 = 0.2098 | – | 0.64 | –
101.33 kPa, x1 = 0.3143 | – | 0.717 | –
101.33 kPa, x1 = 0.4866 | – | 0.844 | –
101.33 kPa, x1 = 0.6126 | – | 0.93 | –
101.33 kPa, x1 = 0.762 | – | 1.036 | –
101.33 kPa, x1 = 0.8201 | – | 1.074 | –
101.33 kPa, x1 = 0.9101 | – | 1.13 | –

CC(=O)OC(C)C + C1CCCCC1
viscosity [mPa·s], 101 kPa
Details | 298.15 K | 308.15 K
x1 = 0.0846 | 0.8036 | 0.6718
x1 = 0.1126 | 0.7518 | 0.6494
x1 = 0.1665 | 0.705 | 0.612
x1 = 0.2671 | 0.636 | 0.5559
x1 = 0.3555 | 0.594 | 0.5212
x1 = 0.4881 | 0.5485 | 0.4824
x1 = 0.5911 | 0.5241 | 0.462
x1 = 0.6773 | 0.5099 | 0.4512
x1 = 0.7902 | 0.4951 | 0.441
x1 = 0.8873 | 0.4932 | 0.4366
x1 = 0.9593 | 0.4903 | 0.4349
x2 = 0.07507 | – | 0.4324
x2 = 0.2053 | – | 0.4373
x2 = 0.298 | – | 0.4444
x2 = 0.3967 | – | 0.4564
x2 = 0.505 | – | 0.4759
x2 = 0.6014 | – | 0.4989
x2 = 0.714 | – | 0.5351
x2 = 0.7973 | – | 0.5787
x2 = 0.8978 | – | 0.6451

C[N+](C)(C)C[C@H](O)CC(=O)[O-] + NC(N)=O
Details | viscosity [mPa·s]
298.15 K, 101.33 kPa, x2 = 0.7 | 553

CCCCNCCCC + CCCCCCCCCCO
viscosity [mPa·s], 101.33 kPa
Details | x1 = 0.0981 | x1 = 0.1964 | x1 = 0.286 | x1 = 0.3857 | x1 = 0.4851 | x1 = 0.5846 | x1 = 0.6877 | x1 = 0.7856 | x1 = 0.8866
303.15 K | 7.771 | 6.615 | 5.545 | 4.423 | 3.439 | 2.607 | 1.944 | 1.445 | 1.073
313.15 K | 5.959 | 4.985 | 4.15 | 3.305 | 2.611 | 2.021 | 1.545 | 1.199 | 0.9135

C1CC[C@H]2CCCC[C@H]2C1 + C1CC[C@H]2CCCC[C@@H]2C1
Details | viscosity [mPa·s]
293.15 K, 101 kPa, x1 = 0.103 | 2.193
293.15 K, 101 kPa, x1 = 0.129 | 2.206
293.15 K, 101 kPa, x1 = 0.206 | 2.289
293.15 K, 101 kPa, x1 = 0.256 | 2.321
293.15 K, 101 kPa, x1 = 0.383 | 2.391
293.15 K, 101 kPa, x1 = 0.509 | 2.622
293.15 K, 101 kPa, x1 = 0.608 | 2.748
293.15 K, 101 kPa, x1 = 0.633 | 2.763
293.15 K, 101 kPa, x1 = 0.756 | 2.943
293.15 K, 101 kPa, x1 = 0.805 | 3.026
293.15 K, 101 kPa, x1 = 0.903 | 3.178
293.15 K, 101.3 kPa, x1 = 0.403 | 2.445
298.15 K, 100 kPa, x1 = 0.39 | 2.22
303.15 K, 101 kPa, x1 = 0.103 | 1.68
303.15 K, 101 kPa, x1 = 0.129 | 1.704
303.15 K, 101 kPa, x1 = 0.206 | 1.748
303.15 K, 101 kPa, x1 = 0.256 | 1.792
303.15 K, 101 kPa, x1 = 0.383 | 1.896
303.15 K, 101 kPa, x1 = 0.509 | 1.977
303.15 K, 101 kPa, x1 = 0.608 | 2.062
303.15 K, 101 kPa, x1 = 0.633 | 2.094
303.15 K, 101 kPa, x1 = 0.756 | 2.151
303.15 K, 101 kPa, x1 = 0.805 | 2.244
303.15 K, 101 kPa, x1 = 0.903 | 2.342
303.15 K, 101.3 kPa, x1 = 0.403 | 1.998
313.15 K, 101.3 kPa, x1 = 0.403 | 1.705
323.15 K, 100 kPa, x1 = 0.39 | 1.44
323.15 K, 101.3 kPa, x1 = 0.403 | 1.457

CCC(=O)[O-].CC[N+]1(C)CCOCC1 + O
viscosity [mPa·s], 100 kPa
Details | x1 = 0.0672 | x1 = 0.1305 | x1 = 0.2131 | x1 = 0.2851 | x1 = 0.4005 | x1 = 0.5397 | x1 = 0.6231 | x1 = 0.7436
298.15 K | 4.98 | 16.4 | 50.3 | 98.7 | 318 | 1237 | 2366 | –
303.15 K | 4.23 | 13.2 | 38.8 | 74.6 | 223 | 796 | 1660 | –
308.15 K | 3.64 | 11.2 | 30.6 | 57.2 | 160 | 530 | 1149 | –
313.15 K | 3.16 | 9.32 | 24.5 | 44.6 | 119 | 366 | 786 | 2582
318.15 K | 2.76 | 7.58 | 20 | 35.4 | 89.3 | 258 | 543 | 1792
323.15 K | 2.44 | 6.46 | 16.5 | 28.7 | 69.1 | 187 | 372 | 1137

CCCC(C)O (stereo not drawn) + Cc1ccccc1
viscosity [mPa·s], 101 kPa
Details | x1 = 0.1002 | x1 = 0.1998 | x1 = 0.2999 | x1 = 0.3994 | x1 = 0.5004 | x1 = 0.6006 | x1 = 0.6993 | x1 = 0.8004 | x1 = 0.8998
303.15 K | 0.5378 | 0.5727 | 0.629 | 0.6912 | 0.7892 | 0.9188 | 1.129 | 1.428 | 1.926
308.15 K | 0.5072 | 0.5384 | 0.5879 | 0.6416 | 0.7284 | 0.836 | 1.012 | 1.259 | 1.656
313.15 K | 0.4802 | 0.5063 | 0.5503 | 0.5965 | 0.6696 | 0.7628 | 0.9099 | 1.114 | 1.435
318.15 K | 0.4548 | 0.4776 | 0.517 | 0.5583 | 0.6236 | 0.7009 | 0.8268 | 0.9944 | 1.26
323.15 K | 0.4322 | 0.4524 | 0.4862 | 0.5226 | 0.5786 | 0.6466 | 0.7539 | 0.8904 | 1.11

From the CheMixHub viscosity set
